Experimental findings from patent publication US10544138B2, “Tricyclic kinase inhibitors of MELK and methods of use” (Dana-Farber Cancer Institute, Inc., priority 2015, dated 2020) are described below.

The target of test [1] is MELK (Homo sapiens, UniProt Q14680). The test is described as follows: Z′-LYTE biochemical assay, MELK inhibition. Also on record: purchased Life Technologies. Conditions: 25 uM ATP concentration; read-out: MELK IC50 as determined by Z′-LYTE biochemical assay. The procedure:
The invention also provides methods for inhibiting MELK, comprising contacting MELK with a compound of the invention in an amount effective to inhibit MELK. In certain embodiments, the method is conducted in vitro. In certain embodiments, the method is conducted in vivo. Inhibition of MELK can be determined by the Z′-LYTE® biochemical assay from Life Technologies (Life Technologies Z′-LYTE® Screening Protocol and Assay Conditions, June 2012, incorporated herein by reference).
Generally, IC50 against MELK was determined by Z′-LYTE® biochemical assay and are measured in nM at 25 uM ATP concentration.

The test system of test [2] is mitotic cells. Description: Mitotic cell death, time-lapse imaging. It counts as cell-based. Here is the method: (§1) U2OS-GFP-H2B cells were treated with vehicle control (0.02% DMSO, v/v) or 1 μM THZ-4-63-1, and subjected to live imaging. Time is given in hours:minutes, relative to the initial time of drug treatment. The arrow points to chromosomes that haven't incorporated into the metaphase plate. […] MDA-MB-468 cells expressing tet-on-shMELK and GFPH2B cells were treated with doxycycline for three days, before subjected to live imaging. Panel D contains images of immunoblotting of lysates from cells treated as in Panel C. Panel E contains images showing mitotic cell death in a cell treated with THZ-4-63-1. The table indicates the quantification of cell death events. Panel F contains images showing that treatment with THZ-4-63-1 impairs chromosome alignment. Cells were treated with DMSO control, or THZ-4-63-1 (5 μM) for 4 hours, followed by MG132 (10 μM) for 1 h. Cells were fixed and stained with anti-CREST, anti-α-tubulin, and DAPI to visualize chromosomes and kinetochores. The histogram indicates the quantifications of cells in metaphase with misaligned chromosomes.
Perturbation of normal mitotic kinetic can lead to various cellular outcomes including cell death.

Test [3] deals with U2OS cells. Description: Live-cell imaging of mitotic progression in U2OS-GFP-H2B cells. As to conditions: 1 μM, asynchronized U2OS cells; control 31.1 min. Type of test: cell-based, human. Here is the method:
as §1
To utilize this novel compound for probing the roles of MELK in mitosis, we first treated asynchronized U2OS cells with THZ-4-63-1 (1 μM), and subjected the cells for live-cell imaging. The fusion protein GFP-Histone H2B was stably introduced into the cells to facilitate observing chromosome dynamics^2,7. […]

In test [4] the target is MARK1 (Homo sapiens, UniProt Q9P0L2). The test is described as follows: Recombinant AMPK family kinase assay, MARK1. Conditions: recombinant kinases. It counts as biochemical. Here is the method:
[…] assays were performed with recombinant protein of the indicated mitotic kinase (left) and AMPK family kinases (right) in the presence of THZ-4-63-1. […] Cells were treated with nocodazole (100 ng/ml) for 18 h or not treated (Asyn., asynchronous). Nocodazole-arrested mitotic cells (M) were isolated via shake-off. The attached cells enriched in G2 phase (G2) were harvested. A portion of the mitotic cells were washed off nocodazole and released into G1 phase after 4 hours of incubation (G1). […] In Panel D, mitotic lysates were prepared from the indicated cells, and treated with λ-phosphatase at 30° C. In Panel E, nocodazole-arrested mitotic cells were treated with increasing concentration of THZ-4-63-1 for 30 min. Cell lysates were subjected to immunoblotting.
To discover a selective MELK inhibitor, a few molecule scaffolds with the potential of binding to MELK were identified, including 2,4-disubstituted pyrimidines and benzonaphthyridinones. […] To investigate if THZ-4-63-1 confers selective inhibition on MELK, we tested its effect on other mitotic kinases. In assays using recombinant kinases, MELK kinase activity was 20-fold more sensitive to THZ-4-63-1, than that of Aurora A, Aurora B, CDK1, or PLK1 (FIG. 1B).

Test [5] deals with chromosome passenger complex (Survivin, Aurora B). Description: Localization of chromosome passenger complex, immunofluorescence. Type of test: cell-based. As to conditions: with nocodazole (0.33 μM) and MG132 (10 μM) 3 h. The procedure: Cell lysates were prepared for immunoblotting. […] HeLa cells were treated with DMSO or THZ-4-63-1 (5 μM) for 4 h followed by 1 h treatment of MG132 (10 μM). Cells were fixed and stained with anti-H3T3ph and anti-CREST. […] Cells were treated as in FIG. 2, Panel D, and additionally treated with MG132 (10 μM) for 1 h before fixation. The histogram indicates the quantification of H3S10ph signal. […] MCF-10A cells stably expressing empty vector (EV) or MELK were fixed for immunostaining. Images were captured with identical exposure time. H3T3ph intensity was quantified by the use of ImageJ. […] Recombinant MELK protein (kinase domain) was incubated with recombinant Histone H3 for 30 min at 30° C. Samples were subjected to immunoblotting using the indicated antibodies. […] Cells stably expressing GFP-MELK were fixed by formaldehyde and stained with anti-H3S10ph. […] Asynchronized (Async.) or nocodazole-arrested mitotic cells were subjected to fractionation, with sample prepared for immunoblotting. Panels H and I are images showing that MELK inhibition impairs the localization of chromosome passenger complex (CPC), indicated by the immunofluorescence detecting Survivin (G) and Aurora B (H). In addition to the presence of doxycyclin or THZ-4-63-1, cells were treated with nocodazole (0.33 μM) and MG132 (10 μM) for 3 h before fixation. […]

Test [6] deals with MDA-MB-468. Description: Cell growth with paclitaxel combination in MDA-MB-468. It counts as cell-based, human. As to conditions: THZ-4-63-1 33.3 or 66.6 nM plus paclitaxel 2 nM. The procedure:
Mitotic cells were treated with THZ-4-63-1 at indicated concentrations for 4 h. Cells were collected for immunoblotting. Panel B contains time-lapse images of U2OS-(H2B-GFP) cells treated with THZ-4-63-1 (5 μM). […] Panel C contains blots showing proteasome-mediated degradation of Cyclin B1, Aurora B and MELK in THZ-4-63-1-induced mitotic slippage. Mitotic cells were treated as in Panel A with THZ-4-63-1 (5 μM), or MG132 (10 μM), or both for 4 h. Panel D contains a graph showing quantification of cell proliferation in the indicated breast cancer cell lines, which were treated with vehicle control or THZ-4-63-1 for one week (Top) and also contains bright-field images acquired from control cells or cells treated with THZ-4-63-1 (111 nM) (Bottom). […] Cells were treated with indicated drugs, and harvested in ten days for quantification of cell growth. The bold curve depicts the theoretic prediction of an additive action between paclitaxel and THZ-4-63-1.
Because microtubule-targeting chemotherapy is the mainstay of treatment for many types of cancer including basal-like breast cancer, we asked if MELK inhibition could combine with drugs that impair microtubule dynamics. […]

As a reminder, the IC50 is the point on the concentration scale where inhibition reaches its midpoint.

Several values for one entry are separate records, joined by “and”; a condition that tells them apart may be missing. Equal values may be shown once.

MELK, sequence (Q14680 whole entry): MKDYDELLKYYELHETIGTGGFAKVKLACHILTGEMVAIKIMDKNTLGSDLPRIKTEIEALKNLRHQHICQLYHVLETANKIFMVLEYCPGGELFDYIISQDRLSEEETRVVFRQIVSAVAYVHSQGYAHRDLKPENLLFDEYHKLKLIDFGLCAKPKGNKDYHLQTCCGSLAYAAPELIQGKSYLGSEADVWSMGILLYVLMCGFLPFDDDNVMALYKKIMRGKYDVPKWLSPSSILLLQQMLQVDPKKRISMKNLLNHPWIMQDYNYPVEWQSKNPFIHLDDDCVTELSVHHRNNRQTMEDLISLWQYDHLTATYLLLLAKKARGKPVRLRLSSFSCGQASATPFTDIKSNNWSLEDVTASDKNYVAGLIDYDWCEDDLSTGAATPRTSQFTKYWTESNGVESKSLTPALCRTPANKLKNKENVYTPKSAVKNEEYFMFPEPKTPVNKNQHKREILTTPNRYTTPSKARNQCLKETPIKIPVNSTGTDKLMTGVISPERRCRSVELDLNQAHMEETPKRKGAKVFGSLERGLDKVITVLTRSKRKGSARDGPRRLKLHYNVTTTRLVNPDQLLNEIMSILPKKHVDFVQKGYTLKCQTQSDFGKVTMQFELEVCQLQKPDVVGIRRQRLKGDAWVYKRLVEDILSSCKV
MARK1, sequence (Q9P0L2 whole entry, species assumed): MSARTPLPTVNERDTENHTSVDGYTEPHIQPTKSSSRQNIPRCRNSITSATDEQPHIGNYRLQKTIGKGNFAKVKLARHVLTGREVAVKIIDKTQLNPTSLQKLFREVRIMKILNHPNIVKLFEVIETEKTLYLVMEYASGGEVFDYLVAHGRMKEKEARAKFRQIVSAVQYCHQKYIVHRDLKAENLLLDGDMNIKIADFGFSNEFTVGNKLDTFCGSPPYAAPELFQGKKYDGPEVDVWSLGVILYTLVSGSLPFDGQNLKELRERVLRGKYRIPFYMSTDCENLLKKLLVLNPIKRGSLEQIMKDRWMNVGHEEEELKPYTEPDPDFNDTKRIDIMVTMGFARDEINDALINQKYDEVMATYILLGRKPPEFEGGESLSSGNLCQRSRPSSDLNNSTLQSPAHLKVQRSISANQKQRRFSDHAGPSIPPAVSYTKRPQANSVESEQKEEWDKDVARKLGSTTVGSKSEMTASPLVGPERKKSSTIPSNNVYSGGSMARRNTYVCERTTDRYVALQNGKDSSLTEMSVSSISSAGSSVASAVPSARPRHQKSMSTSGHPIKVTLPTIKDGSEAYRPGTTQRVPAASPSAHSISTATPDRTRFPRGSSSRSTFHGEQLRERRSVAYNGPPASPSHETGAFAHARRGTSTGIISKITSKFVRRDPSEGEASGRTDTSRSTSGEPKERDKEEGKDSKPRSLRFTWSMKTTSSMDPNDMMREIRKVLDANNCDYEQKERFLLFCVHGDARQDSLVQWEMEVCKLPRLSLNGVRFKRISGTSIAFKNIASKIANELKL

Turning to `CN(C)Cc1ccc(-n2c(=O)ccc3cnc4ccc(-c5cc(Cl)c(O)c(Cl)c5)cc4c32)cc1` [THZ-4-63-1], the half-maximal inhibitory concentration (IC50) in test [1] is 10.8 nM and 10.5 nM. For the same compound, in test [2], the Mitotic cell death entry is recorded as “efficiently induced mitotic cell death”. In test [3], the “Time from nuclear envelope breakdown (NEBD) to anaphase, mean” value stood at 66.4 min. In test [4], the “Selectivity for MELK over MARK1” value is recorded as “preferentially targets MELK”. The “Centromeric localization of CPC subunits Survivin and Aurora B” value in test [5] is “became diffusive”. Moreover, in test [6], the “Inhibition of cell growth, combined with paclitaxel” value was at least 80%.
